pIC50: −log10 of the molar value. Counter-ions that a name gives are not always drawn. Numbered stars: 1 amine (or outer) side, 2 acyl side, 3 side chain; on linkers, the order of the positions; unused ones are H or OH. Bridge positions count the residues as written; N and C are the ends. Square brackets hold non-standard residues; d marks the D form. Peptide text beside a SMILES is read from it. * marks the point of attachment. X1 = NC1=N[C@@H]([C@H](N[*:1])C(=O)[*:2])C[C@H](O)N1; ΔAla(Z-3-ureido) = NC(=O)N/C=C(\N)C(=O)O; β3hOrn = NCCC[C@H](N)CC(=O)*; Dap = NC[C@H](N)C(=O)O

This test concerns SARS-CoV-2. Put plainly: microbe, parasite or virus in culture. The conditions noted are these: Severe acute respiratory syndrome coronavirus 2, Vero C1008, 48 h; for IC50: read-out: pIC50 (converted).

The pIC50 is the IC50 on a negative log10 scale, so that one unit is a factor of ten. A higher pIC50 goes with a low IC50. With `CO/N=C(\C(=O)N[C@@H]1C(=O)N2C(C(=O)O)=C(COC(C)=O)CS[C@H]12)c1csc(N)n1` [CEFOTAXIME], the pIC50 is below 4.70 and the IC50 was above 20 µM.

As to `CCCCCCCCCCCCCCC1(C(=O)OC)CO1` (stereo unspecified) [METHYL PALMOXIRATE], the pIC50 was below 4.70 and the IC50 was above 20 µM.

As to `C[C@]12CC[C@@H]3c4ccc(O)cc4CC[C@H]3[C@@H]1CCC2=O` [ESTRONE], the pIC50 is below 4.70 and the IC50 is above 20 µM.

`Cc1ccc(NC2=NCCN2)c(Cl)c1` [TOLONIDINE]: the pIC50 is below 4.70 and the IC50 was above 20 µM.

As for `CC(CNC(=O)c1cccnc1)NC(=O)c1cccnc1` (stereo unspecified), the pIC50 was below 4.70 and the IC50 is above 20 µM.

Consider `CC(=O)C1CCC2C3CCC4CC(O)CCC4(C)C3CC(O)C12C` (stereo unspecified), for which the pIC50 was below 4.70 and the IC50 is above 20 µM.

As to `COc1ccc(S(=O)(=O)N(C(C)=O)c2ccccc2/C=C/c2cc[n+]([O-])cc2)cc1` [HMN-214], the pIC50 is below 4.70 and the IC50 was above 20 µM.

`CNC(=O)c1cccc(-c2ccc3c(N4CCOC[C@@H]4C)nc(N4CCOC[C@@H]4C)nc3n2)c1` [VISTUSERTIB]: the pIC50 was below 4.70 and the IC50 is above 20 µM.

In the case of `Cc1ccc(Cn2c(NC3CCNCC3)nc3cccnc32)o1` [NOBERASTINE], the pIC50 was below 4.70 and the IC50 is above 20 µM.

`O[C@H](CNC[C@@H](O)[C@H]1CCc2cc(F)ccc2O1)[C@@H]1CCc2cc(F)ccc2O1`: the pIC50 was below 4.70 and the IC50 was above 20 µM.

Regarding `CCN1CCC(=C(c2ccccc2)c2ccccc2)C1` [PRIDEFINE], the pIC50 is below 4.70 and the IC50 was above 20 µM.

As for `Nc1ncnc2c1nc(Cl)n2C1O[C@H](CO)[C@@H](O)[C@H]1O` (stereo partly specified), the pIC50 was below 4.70 and the IC50 is above 20 µM.

As to `CCn1c(=O)n(CCCN2CCN(c3cccc(Cl)c3)CC2)n[13c]1[13CH2][13CH3]`, the pIC50 is below 4.70 and the IC50 was above 20 µM.

On to `CC(C)NC(=O)COc1cccc(-c2nc(Nc3ccc4[nH]ncc4c3)c3ccccc3n2)c1` [BELUMOSUDIL], for which the negative logarithm of the IC50 (pIC50) is below 4.70 and the IC50 is above 20 µM.

As for `CN1CCC(c2c[nH]c3ccc(NC(=O)c4ccc(F)cc4)cc23)CC1`, the pIC50 was below 4.70 and the IC50 is above 20 µM.

For the compound `CC1=C(/C=C/C(C)=C/C=C/C(C)=C/C(=O)O)C(C)(C)CCC1` [TRETINOIN], the pIC50 was below 4.70 and the IC50 is above 20 µM.

For the compound `c1ccc2c(c1)OCC(CN1CCCCC1)O2` (stereo unspecified) [PIPEROXAN], the pIC50 is below 4.70 and the IC50 is above 20 µM.

Take `Cc1ccc(S(=O)(=O)NC(=O)NN2CCCCCC2)cc1` [TOLAZAMIDE]: the pIC50 was below 4.70 and the IC50 was above 20 µM.

With `CCN(CC)C(=O)c1ccc(O)c(OC)c1`, the pIC50 was below 4.70 and the IC50 is above 20 µM.

As for `Fc1ccc(NC(=S)Nc2cc(Cl)cc(Cl)c2)cc1` [LOFLUCARBAN], the pIC50 was below 4.70 and the IC50 is above 20 µM.

With `C1CCC(C(CC2CCCCN2)C2CCCCC2)CC1` (stereo unspecified) [PERHEXILINE MALEATE], the pIC50 was below 4.70 and the IC50 was above 20 µM.

As to `CNC(=O)CN1CCC(Oc2cc3c(Nc4cccc(Cl)c4F)ncnc3cc2OC)CC1` [SAPITINIB], the pIC50 is below 4.70 and the IC50 is above 20 µM.

`CCC(CO)NC(=O)[C@@H]1C=C2c3cccc4[nH]cc(c34)CC2N(C)C1` (stereo partly specified): the negative-log IC50 (pIC50) is below 4.70 and the IC50 is above 20 µM.

With `CC(C)NC[C@H](O)COc1ccc(O)cc1` [PRENALTEROL], the pIC50 was below 4.70 and the IC50 is above 20 µM.

Consider `O=C(O[C@@H]1Cc2c(O)cc(O)cc2O[C@@H]1c1cc(O)c(=O)c2c(O)c(O)cc([C@H]3Oc4cc(O)cc(O)c4C[C@H]3O)c2c1)c1cc(O)c(O)c(O)c1` [THEAFLAVIN MONOGALLATES], for which the pIC50 was below 4.70 and the IC50 was above 20 µM.

In the case of `CN(C)c1cccc2c(S(=O)(=O)Nc3ccc(NC(=O)C(C)(C)CO)cc3)cccc12` [TOMEGLOVIR], the pIC50 was below 4.70 and the IC50 was above 20 µM.

In the case of `c1ccc2c(c1)CC[C@H](CNCCCNC1=NCCCN1)O2`, the pIC50 was below 4.70 and the IC50 was above 20 µM.

Turning to `CN(C)CCOC(=O)C(c1ccccc1)C1(O)CCCC1` (stereo unspecified) [CYCLOPENTOLATE], the pIC50 was below 4.70 and the IC50 was above 20 µM.

For the compound `CCC(=O)c1ccc(O)cc1` [PAROXYPROPIONE], the pIC50 is below 4.70 and the IC50 was above 20 µM.

On to `Cn1cnc2[nH]c(=O)[nH]c(=O)c21` [7-METHYLXANTHINE], for which the pIC50 was below 4.70 and the IC50 was above 20 µM.

As to `CC(C)(C)OC(=O)c1ncn2c1[C@@H]1CCCN1C(=O)c1c(Br)cccc1-2` [BRETAZENIL], the negative-log IC50 (pIC50) is below 4.70 and the IC50 was above 20 µM.

Consider `NCCc1c[nH]c2ccccc12` [TRYPTAMINE], for which the negative logarithm of the IC50 (pIC50) was below 4.70 and the IC50 was above 20 µM.

As to `CN1CCN(CCOc2cc(OC3CCOCC3)c3c(Nc4c(Cl)ccc5c4OCO5)ncnc3c2)CC1` [SARACATINIB], the pIC50 was below 4.70 and the IC50 is above 20 µM.

With `CN[C@@H]1CC[C@@H](c2ccccc2)c2ccccc21` [TAMETRALINE], the pIC50 was below 4.70 and the IC50 was above 20 µM.

Consider `COc1cc(C(=O)NC2CCCNC2)cc(OC)c1OC` (stereo unspecified) [TROXIPIDE], for which the pIC50 was below 4.70 and the IC50 is above 20 µM.

Regarding `Cc1[nH]cnc1CSCCNc1nc(=O)c(Cc2ccc3c(c2)OCO3)c[nH]1` [OXMETIDINE], the pIC50 was below 4.70 and the IC50 is above 20 µM.

Turning to `COc1c(C)cnc(Cn2cnc3c(Cl)nc(N)nc32)c1C` [BIIB021], the pIC50 was below 4.70 and the IC50 was above 20 µM.

With `Cc1cccc(C(C)c2c[nH]cn2)c1C` (stereo unspecified) [MEDETOMIDINE], the pIC50 is below 4.70 and the IC50 is above 20 µM.

Consider `C[C@]1(COc2ccc(N3CCC(Oc4ccc(OC(F)(F)F)cc4)CC3)cc2)Cn2cc([N+](=O)[O-])nc2O1`, for which the pIC50 is below 4.70 and the IC50 was above 20 µM.

Regarding `CCCOc1ccccc1-c1nc2[nH]nnc2c(=O)[nH]1` [ZAPRINAST], the negative-log IC50 (pIC50) is below 4.70 and the IC50 is above 20 µM.

On to `CCCN1CCCC2Cc3nc(N)ncc3CC21` (stereo unspecified), for which the pIC50 was below 4.70 and the IC50 was above 20 µM.

Turning to `CNC(=O)Oc1ccc2c(c1)[C@]1(C)CCN(C)C1N2C` (stereo partly specified), the pIC50 was below 4.70 and the IC50 is above 20 µM.

With `NCCC[C@H](N)CC(=O)N[C@H]1CNC(=O)[C@H]([C@H]2C[C@H](O)NC(N)=N2)NC(=O)/C(=C/NC(N)=O)NC(=O)[C@H](CO)NC(=O)[C@H](CO)NC1=O` [VIOMYCIN] (β3hOrn-[Dap]SS[ΔAla(Z-3-ureido)][X1]; lactam 1-C), the pIC50 is below 4.70 and the IC50 was above 20 µM.

Regarding `COc1ccc(-c2ccc3c(N4CCOC[C@@H]4C)nc(N4CCOC[C@@H]4C)nc3n2)cc1CO` [AZD-8055], the pIC50 is below 4.70 and the IC50 was above 20 µM.

With `CC(C)CCCC(C)NC(C)C` (stereo unspecified) [IPROHEPTINE], the pIC50 was below 4.70 and the IC50 was above 20 µM.

For `CC(=O)S[C@@H]1CC2=CC(=O)CCC2(C)C2CCC3(C)C(CC[C@@]34CCC(=O)O4)C21` (stereo partly specified), the negative-log IC50 (pIC50) was below 4.70 and the IC50 was above 20 µM.

Take `C=CC(C)(C)c1cc(/C=C/C(=O)c2ccc(O)cc2)c(OC)cc1O` [LICOAGROCHACONE A]: the negative logarithm of the IC50 (pIC50) is below 4.70 and the IC50 was above 20 µM.

`CCCc1nc2c(C)cc(-c3nc4ccccc4n3C)cc2n1Cc1ccc(-c2ccccc2C(=O)O)cc1`: the pIC50 was below 4.70 and the IC50 was above 20 µM.

Regarding `Cn1cc(CC(N)C(=O)O)c2ccccc21` (stereo unspecified) [1-METHYLTRYPTOPHAN], the pIC50 is below 4.70 and the IC50 is above 20 µM.

In the case of `OCC(O)C(O)CO` (stereo unspecified), the pIC50 was below 4.70 and the IC50 was above 20 µM.

For the compound `NC(COP(=O)(O)O)C(=O)O` (stereo unspecified), the pIC50 was below 4.70 and the IC50 is above 20 µM.

Turning to `CCc1ccccc1-n1c(C)nc2ccccc2c1=O` [ETAQUALONE], the pIC50 is below 4.60 and the IC50 is above 25.1 µM.

For the compound `C[C@H]1CCC[C@H](C)N1CCCCNC(=O)C(Oc1ccccc1)c1ccccc1` (stereo partly specified), the pIC50 is below 4.70 and the IC50 was above 20 µM.

Turning to `Nc1cc(C(F)(F)F)c(-c2nc(N3CCOCC3)nc(N3CCOCC3)n2)cn1` [BIMIRALISIB], the pIC50 was below 4.70 and the IC50 was above 20 µM.

For the compound `Cn1c(=O)[nH]c(=O)c2[nH]cnc21` [3-METHYLXANTHINE], the pIC50 was below 4.70 and the IC50 is above 20 µM.

With `COc1c(N2C[C@@H]3CCCN[C@@H]3C2)c(F)cc2c(=O)c(C(=O)O)cn(C3CC3)c12` [MOXIFLOXACIN], the pIC50 is below 4.70 and the IC50 was above 20 µM.

In the case of `COc1ccc(C(=O)CC(=O)O)c2c1C=CC(C)(C)O2` [URSINOIC ACID], the pIC50 was below 4.70 and the IC50 is above 20 µM.

For the compound `CC1(C)OC2CC3C4CCC5=CC(=O)C=CC5(C)C4C(O)CC3(C)[C@]2(C(=O)CO)O1` (stereo partly specified), the pIC50 was below 4.70 and the IC50 was above 20 µM.

As for `OC(CCCN1CCN(c2ncc(F)cn2)CC1)c1ccc(F)cc1` (stereo unspecified) [BMY-14802], the pIC50 is below 4.70 and the IC50 is above 20 µM.

With `COc1ccc(C2CNC(=O)C2)cc1OC1CCCC1` (stereo unspecified) [ROLIPRAM], the pIC50 is below 4.70 and the IC50 is above 20 µM.

`Cc1c(OCC(F)(F)F)ccnc1C[S+]([O-])c1nc2ccccc2[nH]1` (stereo unspecified) [LANSOPRAZOLE]: the negative logarithm of the IC50 (pIC50) was below 4.70 and the IC50 was above 20 µM.

For `Cc1ccsc1C(=CCCN1CCC[C@@H](C(=O)O)C1)c1sccc1C` [TIAGABINE], the pIC50 is below 4.70 and the IC50 is above 20 µM.

Turning to `CCOC(=O)[C@@H](N)Cc1ccc(-c2cc(O[C@H](c3ccc(Cl)cc3-n3ccc(C)n3)C(F)(F)F)nc(N)n2)cc1` [TELOTRISTAT ETHYL], the pIC50 is below 4.70 and the IC50 is above 20 µM.

The values are drawn from ChEMBL document CHEMBL4651402, “Screening of ~5500 FDA-approved drugs and clinical candidates for anti-SARS-CoV-2 activity” (2021).
